From PubChem BioAssay (NCI)
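Five concentrations, 48 hours, 96-well plates. GI50 is the concentration that inhibits growth by half. Definition used: TGI = concentration required for complete inhibition of growth.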

Tests used:
Assay in all cases: DTP human tumour cell line panel, 48 h
[1] = test system: HCT-15 colon
[2] = test system: CCRF-CEM leukemia
[3] = test system: LOX IMVI melanoma
[4] = test system: SN12C renal
[5] = test system: K-562 leukemia
[6] = test system: DU-145 prostate
[7] = test system: M14 melanoma
[8] = test system: A498 renal
[9] = test system: 786-0 renal
[10] = test system: CAKI-1 renal
[11] = test system: UO-31 renal
[12] = test system: SNB-19 CNS
[13] = test system: HS 578T breast
[14] = test system: ACHN renal
[15] = test system: TK-10 renal
[16] = test system: NCI-H460 lung
[17] = test system: U251 CNS
[18] = test system: T-47D breast
[19] = test system: UACC-62 melanoma
[20] = test system: SF-268 CNS
[21] = test system: OVCAR-5 ovarian
[22] = test system: MDA-MB-231 breast
[23] = test system: OVCAR-8 ovarian
[24] = test system: HT29 colon
[25] = test system: NCI-H522 lung
[26] = test system: HOP-62 NSCLC
[27] = test system: HOP-92 NSCLC
[28] = test system: SW-620 colon
[29] = test system: NCI-H23 lung
[30] = test system: RPMI-8226 leukemia
[31] = test system: NCI-H226 lung
[32] = test system: SK-MEL-28 melanoma
[33] = test system: MDA-MB-435
[34] = test system: SK-MEL-5 melanoma
[35] = test system: HCC-2998 colon
[36] = test system: SNB-75 CNS
[37] = test system: OVCAR-3 ovarian
[38] = test system: SK-MEL-2 melanoma
[39] = test system: EKVX NSCLC
[40] = test system: HL-60(TB) leukemia
[41] = test system: OVCAR-4 ovarian
[42] = test system: PC-3 prostate
[43] = test system: SF-539 CNS
[44] = test system: RXF 393 renal
[45] = test system: KM12 colon
[46] = test system: MALME-3M melanoma
[47] = test system: SF-295 CNS
[48] = test system: COLO 205 colon
[49] = test system: UACC-257 melanoma
[50] = test system: HCT-116 colon
[51] = test system: MCF7 breast
[52] = test system: A549 NSCLC
[53] = test system: SR leukemia

CCCCNCC(O)c1cc2c(Cl)cc(Cl)cc2c2cc(C(F)(F)F)ccc12 (stereo unspecified)
GI50 [1]: 1.79 µM | TGI [1]: 4.14 µM | GI50 [2]: 2.5 µM | TGI [2]: 5.17 µM | GI50 [3]: 1.66 µM | TGI [3]: 3.6 µM | GI50 [4]: 1.85 µM | TGI [4]: 3.56 µM | GI50 [5]: 1.61 µM | TGI [5]: 3.41 µM | GI50 [6]: 1.89 µM | TGI [6]: 3.36 µM | GI50 [7]: 1.81 µM | TGI [7]: 3.38 µM | GI50 [8]: 1.36 µM | TGI [8]: 2.7 µM | GI50 [9]: 1.51 µM | TGI [9]: 3.43 µM | GI50 [10]: 1.71 µM | TGI [10]: 3.44 µM | GI50 [11]: 1.34 µM | TGI [11]: 2.83 µM | GI50 [12]: 1.82 µM | TGI [12]: 3.51 µM | GI50 [13]: 1.59 µM | TGI [13]: 3.67 µM | GI50 [14]: 1.74 µM | TGI [14]: 3.45 µM | GI50 [15]: 1.98 µM | TGI [15]: 3.51 µM | GI50 [16]: 1.68 µM | TGI [16]: 3.3 µM | GI50 [17]: 1.72 µM | TGI [17]: 3.2 µM | GI50 [18]: 1.74 µM | TGI [18]: 3.8 µM | GI50 [19]: 1.86 µM | TGI [19]: 3.51 µM | GI50 [20]: 1.84 µM | TGI [20]: 3.71 µM | GI50 [21]: 1.56 µM | TGI [21]: 3.08 µM | GI50 [22]: 1.6 µM | TGI [22]: 3.27 µM | GI50 [23]: 1.89 µM | TGI [23]: 3.86 µM | GI50 [24]: 1.77 µM | TGI [24]: 3.23 µM | GI50 [25]: 1.75 µM | TGI [25]: 3.35 µM | GI50 [26]: 1.77 µM | TGI [26]: 3.28 µM | GI50 [27]: 1.2 µM | TGI [27]: 2.71 µM | GI50 [28]: 1.69 µM | TGI [28]: 3.22 µM | GI50 [29]: 1.59 µM | TGI [29]: 3.32 µM | GI50 [30]: 2.07 µM | TGI [30]: 4.72 µM | GI50 [31]: 1.84 µM | TGI [31]: 3.72 µM | GI50 [32]: 1.9 µM | TGI [32]: 3.41 µM | GI50 [33]: 1.8 µM | TGI [33]: 3.56 µM | GI50 [34]: 1.71 µM | TGI [34]: 3.1 µM | GI50 [35]: 1.49 µM | TGI [35]: 2.94 µM | GI50 [36]: 1.7 µM | TGI [36]: 3.23 µM | GI50 [37]: 1.95 µM | TGI [37]: 3.46 µM | GI50 [38]: 2.2 µM | TGI [38]: 3.88 µM | GI50 [39]: 1.82 µM | TGI [39]: 3.61 µM | GI50 [40]: 1.77 µM | TGI [40]: 3.61 µM | GI50 [41]: 1.93 µM | TGI [41]: 3.77 µM | GI50 [42]: 1.58 µM | TGI [42]: 3.03 µM | GI50 [43]: 1.69 µM | TGI [43]: 3.44 µM | GI50 [44]: 1.48 µM | TGI [44]: 2.85 µM | GI50 [45]: 1.93 µM | TGI [45]: 3.45 µM | GI50 [46]: 2.01 µM | TGI [46]: 4.26 µM | GI50 [47]: 1.85 µM | TGI [47]: 3.67 µM | GI50 [48]: 1.78 µM | TGI [48]: 3.31 µM | GI50 [49]: 1.83 µM | TGI [49]: 3.51 µM | GI50 [50]: 1.53 µM | TGI [50]: 3.05 µM | GI50 [51]: 1.48 µM | TGI [51]: 2.96 µM | GI50 [52]: 1.82 µM | TGI [52]: 3.4 µM | GI50 [53]: 1.42 µM | TGI [53]: 3.93 µM
